Assay results: PubChem BioAssay (NCI)
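Method: 48-hour compound exposure of cells in 96-well plates, five concentrations, linear interpolation of endpoints. The concentration for 50% growth inhibition is given as GI50. TGI is the concentration that stops growth completely.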

How the values were obtained:
Assay in all cases: NCI anticancer screen, dose series, 48 h
LOX IMVI melanoma = test system: LOX IMVI melanoma
M14 melanoma = test system: M14 melanoma
MALME-3M melanoma = test system: MALME-3M melanoma
NCI/ADR-RES ovarian = test system: NCI/ADR-RES ovarian
SF-268 CNS = test system: SF-268 CNS
U251 CNS = test system: U251 CNS
K-562 leukemia = test system: K-562 leukemia
COLO 205 colon = test system: COLO 205 colon
SNB-19 CNS = test system: SNB-19 CNS
SK-OV-3 ovarian = test system: SK-OV-3 ovarian
HCT-116 colon = test system: HCT-116 colon
IGROV1 ovarian = test system: IGROV1 ovarian
DU-145 prostate = test system: DU-145 prostate
NCI-H226 lung = test system: NCI-H226 lung
UO-31 renal = test system: UO-31 renal
786-0 renal = test system: 786-0 renal
NCI-H460 lung = test system: NCI-H460 lung
CAKI-1 renal = test system: CAKI-1 renal
HOP-92 NSCLC = test system: HOP-92 NSCLC
MCF7 breast = test system: MCF7 breast
MDA-MB-231 breast = test system: MDA-MB-231 breast
SK-MEL-5 melanoma = test system: SK-MEL-5 melanoma
SK-MEL-28 melanoma = test system: SK-MEL-28 melanoma
HT29 colon = test system: HT29 colon
HOP-62 NSCLC = test system: HOP-62 NSCLC
OVCAR-5 ovarian = test system: OVCAR-5 ovarian
HCT-15 colon = test system: HCT-15 colon
KM12 colon = test system: KM12 colon
MOLT-4 leukemia = test system: MOLT-4 leukemia
OVCAR-4 ovarian = test system: OVCAR-4 ovarian
CCRF-CEM leukemia = test system: CCRF-CEM leukemia
RXF 393 renal = test system: RXF 393 renal
PC-3 prostate = test system: PC-3 prostate
MDA-MB-435 = test system: MDA-MB-435
NCI-H522 lung = test system: NCI-H522 lung
SF-295 CNS = test system: SF-295 CNS
HCC-2998 colon = test system: HCC-2998 colon
T-47D breast = test system: T-47D breast
HS 578T breast = test system: HS 578T breast
SN12C renal = test system: SN12C renal
TK-10 renal = test system: TK-10 renal
SF-539 CNS = test system: SF-539 CNS
ACHN renal = test system: ACHN renal
A498 renal = test system: A498 renal
NCI-H23 lung = test system: NCI-H23 lung
A549 NSCLC = test system: A549 NSCLC
UACC-257 melanoma = test system: UACC-257 melanoma
SK-MEL-2 melanoma = test system: SK-MEL-2 melanoma
SR leukemia = test system: SR leukemia
OVCAR-3 ovarian = test system: OVCAR-3 ovarian
UACC-62 melanoma = test system: UACC-62 melanoma
BT-549 breast = test system: BT-549 breast
SNB-75 CNS = test system: SNB-75 CNS
SW-620 colon = test system: SW-620 colon
OVCAR-8 ovarian = test system: OVCAR-8 ovarian
HL-60(TB) leukemia = test system: HL-60(TB) leukemia
RPMI-8226 leukemia = test system: RPMI-8226 leukemia

Cc1cc(Nc2nc(-c3ccc(F)cc3)nc3ccccc23)n[nH]1
GI50 (LOX IMVI melanoma): 1.05 µM
TGI (LOX IMVI melanoma): 11.2 µM
GI50 (M14 melanoma): 0.748 µM
TGI (M14 melanoma): 19.4 µM
GI50 (MALME-3M melanoma): 16.4 µM
TGI (MALME-3M melanoma): 31.8 µM
GI50 (NCI/ADR-RES ovarian): 4.5 µM
TGI (NCI/ADR-RES ovarian): 52.2 µM
GI50 (SF-268 CNS): 3.85 µM
TGI (SF-268 CNS): 24.5 µM
GI50 (U251 CNS): 1.75 µM
TGI (U251 CNS): 21.4 µM
GI50 (K-562 leukemia): 3.91 µM
TGI (K-562 leukemia): 24.1 µM
GI50 (COLO 205 colon): 1.35 µM
TGI (COLO 205 colon): 3.35 µM
GI50 (SNB-19 CNS): 8.48 µM
TGI (SNB-19 CNS): > 93.9 µM
GI50 (SK-OV-3 ovarian): 0.855 µM
TGI (SK-OV-3 ovarian): 41.8 µM
GI50 (HCT-116 colon): 0.76 µM
TGI (HCT-116 colon): 15.5 µM
GI50 (IGROV1 ovarian): 0.983 µM
TGI (IGROV1 ovarian): 9.17 µM
GI50 (DU-145 prostate): 6.44 µM
TGI (DU-145 prostate): > 48.9 µM
GI50 (NCI-H226 lung): 3.36 µM
TGI (NCI-H226 lung): 18 µM
GI50 (UO-31 renal): 0.574 µM
TGI (UO-31 renal): 15 µM
GI50 (786-0 renal): 1.99 µM
TGI (786-0 renal): 38.1 µM
GI50 (NCI-H460 lung): 3.17 µM
TGI (NCI-H460 lung): 21 µM
GI50 (CAKI-1 renal): 0.453 µM
TGI (CAKI-1 renal): 17.6 µM
GI50 (HOP-92 NSCLC): 0.72 µM
TGI (HOP-92 NSCLC): 8.64 µM
GI50 (MCF7 breast): 2.79 µM
TGI (MCF7 breast): 18.8 µM
GI50 (MDA-MB-231 breast): 9.15 µM
TGI (MDA-MB-231 breast): 26.8 µM
GI50 (SK-MEL-5 melanoma): 7.4 µM
TGI (SK-MEL-5 melanoma): 20.3 µM
GI50 (SK-MEL-28 melanoma): 8.46 µM
TGI (SK-MEL-28 melanoma): 21.7 µM
GI50 (HT29 colon): 0.691 µM
TGI (HT29 colon): 7.5 µM
GI50 (HOP-62 NSCLC): 4.76 µM
TGI (HOP-62 NSCLC): 20.3 µM
GI50 (OVCAR-5 ovarian): 10.1 µM
TGI (OVCAR-5 ovarian): 34.5 µM
GI50 (HCT-15 colon): 0.673 µM
TGI (HCT-15 colon): 33.9 µM
GI50 (KM12 colon): 0.0631 µM
TGI (KM12 colon): 12 µM
GI50 (MOLT-4 leukemia): 10.1 µM
TGI (MOLT-4 leukemia): 35.1 µM
GI50 (OVCAR-4 ovarian): 3.2 µM
TGI (OVCAR-4 ovarian): 27.8 µM
GI50 (CCRF-CEM leukemia): 8.55 µM
TGI (CCRF-CEM leukemia): 39.6 µM
GI50 (RXF 393 renal): 0.757 µM
TGI (RXF 393 renal): 5.09 µM
GI50 (PC-3 prostate): 2.26 µM
TGI (PC-3 prostate): 21.4 µM
GI50 (MDA-MB-435): 1.65 µM
TGI (MDA-MB-435): 16.2 µM
GI50 (NCI-H522 lung): 3.44 µM
TGI (NCI-H522 lung): 18.8 µM
GI50 (SF-295 CNS): 5.36 µM
TGI (SF-295 CNS): 21.2 µM
GI50 (HCC-2998 colon): 5.24 µM
TGI (HCC-2998 colon): 25.4 µM
GI50 (T-47D breast): 1.92 µM
TGI (T-47D breast): 11.8 µM
GI50 (HS 578T breast): 0.842 µM
TGI (HS 578T breast): 7.54 µM
GI50 (SN12C renal): 3.1 µM
TGI (SN12C renal): 25.2 µM
GI50 (TK-10 renal): 1.25 µM
TGI (TK-10 renal): 33.4 µM
GI50 (SF-539 CNS): 2.81 µM
TGI (SF-539 CNS): 15.4 µM
GI50 (ACHN renal): 0.818 µM
TGI (ACHN renal): 39.5 µM
GI50 (A498 renal): 0.371 µM
TGI (A498 renal): 5.21 µM
GI50 (NCI-H23 lung): 5.74 µM
TGI (NCI-H23 lung): 24.9 µM
GI50 (A549 NSCLC): 1.77 µM
TGI (A549 NSCLC): 18.1 µM
GI50 (UACC-257 melanoma): 10 µM
TGI (UACC-257 melanoma): 22.7 µM
GI50 (SK-MEL-2 melanoma): 0.811 µM
TGI (SK-MEL-2 melanoma): 16 µM
GI50 (SR leukemia): 1.34 µM
TGI (SR leukemia): 38.4 µM
GI50 (OVCAR-3 ovarian): 4.9 µM
TGI (OVCAR-3 ovarian): 31.6 µM
GI50 (UACC-62 melanoma): 3.96 µM
TGI (UACC-62 melanoma): 19.6 µM
GI50 (BT-549 breast): 7.3 µM
TGI (BT-549 breast): 21.6 µM
GI50 (SNB-75 CNS): 0.469 µM
TGI (SNB-75 CNS): 7.42 µM
GI50 (SW-620 colon): 2.1 µM
TGI (SW-620 colon): 15.7 µM
GI50 (OVCAR-8 ovarian): 7.28 µM
TGI (OVCAR-8 ovarian): 36.9 µM
GI50 (HL-60(TB) leukemia): 2.78 µM
TGI (HL-60(TB) leukemia): 34.8 µM
GI50 (RPMI-8226 leukemia): 9.22 µM
TGI (RPMI-8226 leukemia): 39.1 µM
